{"source": "patent US20040023211A1", "about": "“System and method for optimizing drug theraphy for the treatment of diseases” (priority 2000, published 2004)", "key": {"[1]": {"system": "HIV-1", "type": "in vivo, adults infected with HIV-1", "conditions": "change in viral load at week 24, sigmoidal Emax model, p<0.05", "protocol": "The normalized inhibitory quotient (NIQ) was determined as: [formula]\nWhere the IQ in an individual patient (IQpatient) was calculated as ratio of the patient's trough concentration (Cmin) to the susceptibility of the patient's virus to the drug, expressed as fold change compared to wild type virus (Virtual Phenotype). The IQpt was then related to the reference inhibitory quotient (IQref), in which the mean population trough concentration of the drug from the product label was divided by the cut-off value of the fold change for susceptible viruses.\nFor amprenavir, nelfinavir, and ritonavir, the concentration 12 hours after dosing was used as the Cmin. […]"}, "[2]": {"assay": "Amprenavir trough plasma concentration (Cmin, 12 hours after dosing) by LC-MS/MS in treatment-experienced patients", "type": "in vivo, adults infected with HIV-1", "conditions": "amprenavir 1200 mg bid with abacavir, efavirenz and ritonavir or nelfinavir, 17 patients", "procedure": "Patients were enrolled into three parallel treatment groups that included abacavir 300 mg bid, amprenavir 1200 mg bid, and efavirenz 600 mg daily with either low dose ritonavir at 200 mg BID, high dose ritonavir at 500 mg bid, or nelfinavir 1250 mg bid.\nGenotyping (VircoGEN II™, VIRCO) and VIRTUAL PHENOTYPE™ were performed on baseline samples. Viral load data were collected at baseline (mean of two pre-therapy samples) and at week 24. Serial pharmacokinetic samples were collected over 12 hours after week 3 for ritonavir-boosted regimens and after week 2 for nelfinavir-boosted regimens.\nAmprenavir concentrations in plasma were determined by a validated LC-MS/MS method.\nFor amprenavir, nelfinavir, and ritonavir, the concentration 12 hours after dosing was used as the Cmin. For each drug, relationships between viral load change at week 24 and the Cmin, fold-change in resistance, and NIQ were fit to a sigmoidal maximum effect model."}, "[3]": {"system": "HIV", "conditions": "cited from earlier work; for % of patients with viral load below 400 copies/mL at week 24: lopinavir plus efavirenz and 2 NRTIs, 56 patients"}}, "note": "Where two headings read alike, the source gives them in different places.", "data": [{"smiles": "CC(C)CN(C[C@@H](O)[C@H](Cc1ccccc1)NC(=O)O[C@H]1CCOC1)S(=O)(=O)c1ccc(N)cc1", "note": "[Amprenavir, amprenavir]", "values": [{"measurement": "correlation of NIQ with outcome at 24 weeks", "setting": "[1]", "result": "correlated with outcome at 24 weeks"}, {"measurement": "Cmin, range", "setting": "[2]", "result": "(264-3453) ng/ml"}]}, {"smiles": "Cc1cccc(C)c1OCC(=O)N[C@@H](Cc1ccccc1)[C@@H](O)C[C@H](Cc1ccccc1)NC(=O)[C@H](C(C)C)N1CCCNC1=O", "note": "[lopinavir]", "values": [{"measurement": "% of patients with viral load below 400 copies/mL at week 24", "setting": "[3]; lopinavir IQ 4-15", "result": 80, "unit": "%"}, {"measurement": "% of patients with viral load below 400 copies/mL at week 24", "setting": "[3]; lopinavir IQ <4", "result": 70, "unit": "%"}, {"measurement": "% of patients with viral load below 400 copies/mL at week 24", "setting": "[3]; lopinavir IQ >15", "result": 100, "unit": "%"}, {"measurement": "correlation of trough concentration alone with virologic outcome", "setting": "[3]; lopinavir trough concentration alone, week 24", "result": "no correlation with virologic outcome was found"}]}]}
